Where a name gives a salt, the structure may show the parent alone. Read-outs that look alike come from different tables or passages of the source.
How the values were obtained:
[1] = tested on: HAP1 MTAP-deleted cell line; experiment: SDMA in-cell western assay, HAP1 MTAP-deleted; type: cell-based; settings: for IC50: Homo sapiens; for MTAP intact/deleted ratio: IC50 ratio HAP1 MTAP-intact / HAP1 MTAP-deleted, SDMA in-cell western
From the text: (§1) Table 1 also indicates IC50 values in an MTAP-isogenic cell line pair for exemplary compounds in an SDMA in-cell western assay (columns 7-8). HAP1 MTAP-intact is a cell line in which endogenous levels of MTAP are expressed, and HAP1 MTAP-deleted is an MTAP-null cell line.

[2] = tested on: HAP1 MTAP-deleted cell line; experiment: Viability assay, MTAP-deleted cell line; type: cell-based; settings: Homo sapiens
From the text: Table 1 additionally indicates IC50 values in a viability assay for the MTAP-deleted cell line (column 10), indicating the effect of treatment with compound on cell survival.

[3] = tested on: HAP1 MTAP-intact cell line; experiment: SDMA in-cell western assay, HAP1 MTAP-intact; type: cell-based; settings: Homo sapiens
From the text: as §1

[4] = target: T1, PRMT5 (Homo sapiens, UniProt O14744); experiment: PRMT5 biochemical IC50 assay with SAM as cofactor; settings: PRMT5, SAM as cofactor; read-out: SAM IC50
T1 construct: purchased Viva (custom protein)
T1 sequence (O14744 whole entry): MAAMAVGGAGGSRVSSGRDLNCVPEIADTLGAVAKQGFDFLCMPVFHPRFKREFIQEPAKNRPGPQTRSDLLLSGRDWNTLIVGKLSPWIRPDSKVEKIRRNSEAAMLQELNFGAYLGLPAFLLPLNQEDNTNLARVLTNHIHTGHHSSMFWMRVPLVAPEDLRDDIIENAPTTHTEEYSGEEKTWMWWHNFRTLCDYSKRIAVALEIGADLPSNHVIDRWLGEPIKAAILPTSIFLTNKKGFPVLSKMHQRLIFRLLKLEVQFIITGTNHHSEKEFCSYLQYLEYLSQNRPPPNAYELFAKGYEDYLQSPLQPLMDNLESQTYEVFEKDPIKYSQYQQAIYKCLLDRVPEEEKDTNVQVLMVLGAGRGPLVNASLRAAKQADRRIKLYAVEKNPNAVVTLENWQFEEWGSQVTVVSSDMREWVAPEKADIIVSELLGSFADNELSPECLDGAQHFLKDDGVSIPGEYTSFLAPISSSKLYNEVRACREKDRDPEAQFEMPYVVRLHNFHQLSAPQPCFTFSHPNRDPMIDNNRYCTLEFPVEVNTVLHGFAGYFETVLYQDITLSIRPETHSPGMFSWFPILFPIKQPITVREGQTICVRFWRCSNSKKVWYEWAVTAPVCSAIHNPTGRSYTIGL
T1 sequence (Q9BQA1 whole entry partner): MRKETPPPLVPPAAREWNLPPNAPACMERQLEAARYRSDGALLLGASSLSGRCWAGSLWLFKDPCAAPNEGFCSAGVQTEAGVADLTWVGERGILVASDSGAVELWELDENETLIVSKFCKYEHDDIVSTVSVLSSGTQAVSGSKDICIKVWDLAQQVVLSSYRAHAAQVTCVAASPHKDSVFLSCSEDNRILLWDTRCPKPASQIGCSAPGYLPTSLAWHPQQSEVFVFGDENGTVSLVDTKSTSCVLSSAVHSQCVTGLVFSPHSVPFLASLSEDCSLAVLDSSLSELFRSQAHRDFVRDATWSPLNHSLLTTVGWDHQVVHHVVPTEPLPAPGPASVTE

[5] = target: T1, PRMT5; experiment: PRMT5 biochemical IC50 assay with MTA as cofactor; settings: PRMT5, MTA as cofactor; read-out: MTA IC50
[6] = target: T1, PRMT5; experiment: PRMT5 biochemical IC50 assay with no cofactor; settings: PRMT5, no cofactor
From the text: Table 1 indicates IC50 values (μM) against PRMT5 for exemplary compounds in the presence of SAM as cofactor, with no cofactor, and with MTA as cofactor, respectively (columns 4-6). […] Ki values can be calculated from the IC50 values as described in the Examples section. As detailed in the Examples section, for the assay performed in the presence of SAM, IC50=Ki×1.5 (Ki=IC50/1.5).

[7] = HAP1, read-out: HAP1 MTAP deleted IC50
[8] = HAP1, read-out: HAP1 MTAP deleted viability
[9] = HAP1, read-out: MTAP HAP1 intact IC50
[10] = HAP1, SDMA in-cell western, HAP1 MTAP-deleted, read-out: HAP 1 MTAP deleted IC50
[11] = HAP1, SDMA in-cell western, HAP1 MTAP-intact, read-out: MTAP HAP1 intact IC50
[12] = HAP1, viability IC50, MTAP-deleted cell line, read-out: HAP1 MTAP deleted viability
[13] = HAP1, viability assay, MTAP-deleted cell line, read-out: HAP1 MTAP deleted viability

| SMILES | IC50 [1, 7] [nM] | IC50 [2, 8] [nM] | IC50 [3, 9] [nM] | IC50 [4] [nM] | IC50 [5] [nM] | IC50 ([6]; read-out: No Cofactor/rel IC50) [nM] | IC50 [2, 13] [nM] | further results |
| --- | --- | --- | --- | --- | --- | --- | --- | --- |
| Cc1cc(NC(=O)C(=O)N2CC(C)CCC2c2ccccc2)cnc1N (mixture of isomers) [Compound 27, N-(6-Amino-5-methyl-3-pyridyl)-2-(5-methyl-2-phenyl-1-piperidyl)-2-oxo-acetamide] | < 100 | 1000 to 10000 | > 1000 |  |  |  |  |  |
| Cc1cncc(NC(=O)C(=O)N2[C@H](c3ccccc3)CC[C@@H](C)[C@@H]2C)c1 (racemic) [Compound 23, rac-2-[(2S,3R,6S)-2,3-dimethyl-6-phenyl-1-piperidyl]-N-(5-methyl-3-pyridyl)-2-oxo-acetamide] | > 1000 | > 10000 | > 1000 |  |  |  |  |  |
| Cc1cc(NC(=O)C(=O)N2C[C@H](C)CC[C@H]2c2ccc(O)cc2)cnc1N (racemic) [Compound 164, rac-N-(6-amino-5-methylpyridin-3-yl)-2-((2R,5S)-2-(4-hydroxyphenyl)-5-methylpiperidin-1-yl)-2-oxoacetamide] | < 100 | < 1000 | 100 to 1000 |  |  |  |  |  |
| Cc1cc(NC(=O)C(=O)N2C[C@H](C)CC[C@H]2c2ccc3c(c2)CC(=O)N3)cnc1N (racemic) [Compound 373, N-(6-amino-5-methyl-3-pyridyl)-2-[5-methyl-2-(2-oxoindolin-5-yl)-1-piperidyl]-2-oxo-acetamide] | < 100 | < 1000 | 100 to 1000 |  |  |  |  |  |
| Cc1cc(NC(=O)C(=O)N2C[C@H](C)CC[C@@H]2c2ccc(-c3ccn[nH]3)s2)cnc1N (racemic) [Compound 577, N-(6-amino-5-methyl-3-pyridyl)-2-[(2R,5R)-5-methyl-2-[5-(1H-pyrazol-5-yl)-2-thienyl]-1-piperidyl]-2-oxo-acetamide] |  |  |  |  |  |  |  | IC50 [1, 10]: > 1000 nM; MTAP intact/deleted ratio [1]: B (an IC50 ratio greater than or equal to 3 fold but lower than 10 fold); IC50 [3, 11]: > 1000 nM |
| Cc1cc(NC(=O)C(=O)N2C[C@H](C)CC[C@@H]2c2ccc3c(c2)CCC(=O)N3)cnc1N (racemic) [Compound 583, N-(6-Amino-5-methyl-3-pyridyl)-2-[(2R,5R)-5-methyl-2-(2-oxo-3,4-dihydro-1H-quinolin-6-yl)-1-piperidyl]-2-oxo-acetamide] | < 100 | < 1000 | < 100 |  |  |  |  |  |
| Cc1cc(NC(=O)C(=O)N2C[C@H](C)CC[C@H]2c2ccc3cnccc3c2)cnc1N (racemic) [Compound 758, N-(6-Amino-5-methyl-3-pyridyl)-2-[2-(6-isoquinolyl)-5-methyl-1-piperidyl]-2-oxo-acetamide] | < 100 | < 1000 | 100 to 1000 |  |  |  |  |  |
| [2H][C@]1(c2ccc(F)cc2)CC[C@H](C)CN1C(=O)C(=O)Nc1cnc(N)c(C)c1 (racemic) [Compound 1009, N-(6-amino-5-methylpyridin-3-yl)-2-(2-(4-fluorophenyl)-5-methylpiperidin-1-yl-2-d)-2-oxoacetamide hydrochloride] | < 100 | 1000 to 10000 | 100 to 1000 |  |  |  |  |  |
| Cc1cc(NC(=O)C(=O)N2C[C@H](C)CC[C@H]2c2ccc3sc(CN(C)C)nc3c2)cnc1N (racemic) [Compound 1106, N-(6-amino-5-methylpyridin-3-yl)-2-(2-(2-((dimethylamino)methyl)benzo[d]thiazol-5-yl)-5-methylpiperidin-1-yl)-2-oxoacetamide] | < 100 | < 1000 | < 100 |  |  |  |  |  |
| C[C@H]1CC[C@H](c2ccc(N)cn2)N(C(=O)C(=O)Nc2cncc(C(N)=O)c2)C1 (relative stereo) [Compound 594, 5-[[2-[(2R,5S)-2-(5-amino-2-pyridyl)-5-methyl-1-piperidyl]-2-oxo-acetyl]amino]pyridine-3-carboxamide] |  |  |  |  |  |  |  | IC50 [1, 10]: > 1000 nM; MTAP intact/deleted ratio [1]: B (an IC50 ratio greater than or equal to 3 fold but lower than 10 fold); IC50 [2, 12]: > 10000 nM; IC50 [3, 11]: > 1000 nM |
| COc1ncc(NC(=O)C(=O)N2C[C@H](C)CC[C@H]2c2ccc3sccc3c2)cc1C(N)=O (relative stereo) [Compound 633, 5-[[2-[(2S,5R)-2-(benzothiophen-5-yl)-5-methyl-1-piperidyl]-2-oxo-acetyl]amino]-2-methoxy-pyridine-3-carboxamide] |  |  |  |  |  |  |  | IC50 [1, 10]: > 1000 nM; MTAP intact/deleted ratio [1]: C (an IC50 ratio of less than 3 fold); IC50 [2, 12]: > 10000 nM; IC50 [3, 11]: > 1000 nM |
| C[C@@H]1CC[C@H](c2ccccc2)N(C(=O)C(=O)Nc2cncc(C(N)=O)c2)C1 (single isomer, unassigned) [Compound 75] | > 1000 |  | > 1000 |  |  |  |  |  |
| C[C@@H]1CC[C@@H](c2ccc3c(c2)CC(=O)N3)N(C(=O)C(=O)Nc2cncc(C(N)=O)c2)C1 (single isomer, unassigned) [Compound 325] | > 1000 |  | > 1000 |  |  |  |  |  |
| Cc1cc(NC(=O)C(=O)N2C[C@@H](C)CC[C@@H]2c2ccncc2)cnc1N (single isomer, unassigned) [Compound 609] |  |  |  | > 500 | > 500 | > 500 |  | IC50 [1, 10]: > 1000 nM; MTAP intact/deleted ratio [1]: C (an IC50 ratio of less than 3 fold); IC50 [2, 12]: > 10000 nM |
| Cc1cc(NC(=O)C(=O)N2C[C@H](C)C(F)(F)C[C@H]2c2cccc3[nH]ncc23)cnc1N (single isomer, unassigned) [Compound 1041] |  |  |  | 50 to 500 | < 50 | < 50 | < 1000 |  |
| C[C@H]1CC[C@H](c2ccc(NCC(=O)N(C)C)cc2)N(C(=O)C(=O)Nc2cncc(C(N)=O)c2)C1 (single isomer, unassigned) [Compound 1082] |  |  |  | > 500 | > 500 | > 500 | > 10000 |  |
| C[C@@H]1CC[C@@H](c2cccc(Cl)c2)N(C(=O)C(=O)Nc2cnc(N)c(C3CC3)c2)C1 (single isomer, unassigned) [Compound 1169] |  |  |  | > 500 | 50 to 500 | > 500 | > 10000 |  |
| COc1ncc(NC(=O)C(=O)N2C[C@H](C)CC[C@H]2c2ccc3sc(CCN(C)C)nc3c2)cc1C(N)=O (single isomer, unassigned) [Compound 1197] |  |  |  | > 500 | > 500 | > 500 | 1000 to 10000 |  |
| Cc1cncc(NC(=O)C(=O)N2CC(C)CCC2c2ccccc2)c1 (stereo not drawn) [Compound 1, 2-(5-methyl-2-phenylpiperidin-1-yl)-N-(5-methylpyridin-3-yl)-2-oxoacetamide] | > 1000 |  | > 1000 |  |  |  |  |  |
| NC(=O)c1cncc(NC(=O)C(=O)N2CCCCC2C2CCCC2O)c1 (stereo not drawn) [Compound 169, 5-{2-[2-(2-Hydroxycyclopentyl)piperidin-1-yl]-2-oxoacetamido}pyridine-3-carboxamide] |  |  |  | 50 to 500 | 50 to 500 |  | > 10000 | IC50 ([6]; read-out: No Cofactor/ rel IC50): > 500 nM |
| NC(=O)c1cncc(NC(=O)C(=O)N2CCC3C(CCCN3Cc3ccccc3)C2)c1 (stereo not drawn) [Compound 412, 5-[2-(1-Benzyl-decahydro-1,6-naphthyridin-6-yl)-2-oxoacetamido]pyridine-3-carboxamide] |  |  |  | 50 to 500 | 50 to 500 | > 500 | > 10000 |  |
| NC(=O)CC1CCC2CN(C(=O)C(=O)Nc3cncc(C(N)=O)c3)CCC2C1 (stereo not drawn) [Compound 420, 5-{2-[6-(Carbamoylmethyl)-decahydroisoquinolin-2-yl]-2-oxoacetamido}pyridine-3-carboxamide] |  |  |  | > 500 | 50 to 500 | > 500 | > 10000 |  |

Reference: patent US11999727B2 (Tango Therapeutics, Inc., priority 2020, dated 2024)
